# In patent US9457045B2, “Combination of anti-clusterin oligonucleotide with Hsp90 inhibitor for the treatment of prostate cancer” (The University of British Columbia, priority 2011, dated 2016):
# Read-outs that look alike come from different tables or passages of the source. In the oligonucleotide strings, read from the 5' end, every base follows the letter of its sugar. An asterisk marks phosphorothioate; unmarked linkages are phosphodiester. Other units and linkages are bracketed, terminal groups are in braces. A string of capitals states the bases alone. e = 2'-O-(2-methoxyethyl) (MOE); [5mC] = 5-methylcytosine; d = 2'-deoxy (DNA)
# Tests used:
# LNCaP cells = assay: Apoptosis assays: propidium iodide flow cytometry (subG1) and western blotting; assay type: cell-based, human; conditions: 300 nM custirsen or ScrB twice, then 1 μM Hsp90 inhibitor
# Description: FIG. 4. Increased potency of CLU knockdown and Hsp90 inhibitor combination treatment in PCa cells. A, LNCaP cells were treated twice with 300 nM custirsen or control ScrB ASO, followed by the indicated concentration of Hsp90i-1 or Hsp90i-2 for 48 h. Cell growth was determined by crystal violet and compared with control. B, dose dependent effects and combination index (CI) values calculated by CalcuSyn software were assessed in LNCap cells treated for 48 h with custirsen alone, Hsp90i-2 alone or combined treatment at indicated concentration with constant ratio design between both drugs. […] C and D, LNCaP cells were treated twice with 300 nM custirsen or control ScrB, followed by 1 μM Hsp90i-1 or Hsp90i-2 for 48 h. […] The proportion of cells in subG1, G0-G1, S, G2-M was determined by propidium iodide staining and caspase-3 activity was determined on the cell lysates and the results are expressed in arbitrary units and corrected for protein content (D). […]
# Prostate cells lines were plated in appropriate media (DMEM or RPMI) with 5% FBS and treated with Hsp90i-2-PRO or Hsp90i-1 at indicated concentration and time and cell growth was measured using the crystal violet assay as described previously (Leung et al., 2000). Detection and quantitation of apoptotic cells were done by flow-cytometry (described below) and western blotting analysis. […]
# CLU [1] = assay: CLU expression in CRPC LNCaP xenografts (immunohistochemistry and western blot); assay type: in vivo, mice; conditions: 50 mg/kg Hsp90i-2-PRO for 6 weeks
# Description: (§1) FIG. 2. Hsp90i-2 induces HSP and CLU expression in PCa xenografts. Mice were treated for 6 weeks with 50 mg/kg Hsp90i-2-PRO (the prodrug of Hsp90i-2) or vehicle (Control). A, tumors were collected and CLU and Hsp70 were evaluated by immunohistochemical analysis. B, total proteins were extracted from the xenograft tumors and CLU expression was analyzed by western blotting. The relative levels were normalized with GAPDH and estimated in densitometric units. ***, p<0.001.
# (§2) Male athymic nude mice (Harlan Sprague-Dawley, Inc.) were injected s.c. with 2×10^6 LNCaP cells (suspended in 0.1 mL Matrigel; BD Biosciences). The mice were castrated once tumors reach between 300 and 500 mm^3 or the PSA level increased above 50 ng/mL. Once tumors progressed to castrate resistance, mice were randomly assigned to vehicle, Hsp90i-2-PRO alone, Hsp90i-2-PRO+ScrB ASO or Hsp90i-2-PRO+custirsen. […] Tumor volume was measured twice weekly (length×width×depth×0.5432). Serum PSA was determined weekly by enzymatic immunoassay (Abbott IMX, Montreal, Quebec, Canada). PSA doubling time (PSAdt) and velocity were calculated by the log-slope method (PSAt=PSAinitial×emt). Data points were expressed as average tumor volume±SEM or average PSA concentration±SEM. […]
# [2] = tested on: castrate resistant LNCaP tumors; assay: Castrate resistant LNCaP xenograft model; assay type: in vivo; conditions: for tumor volume: Hsp90i-2-PRO 25 mg/kg oral, ASO 15 mg/kg i.p.
# Description: FIG. 6. […] Mice were treated with 25 mg/kg Hsp90i-2-PRO and 15 mg/kg custirsen starting when serum PSA values relapsed to pre-castration levels. […] Progression-free survival was defined as time for the first tumor volume doubling.
# FIG. 7. […] A, tumors were collected after 57 days and CLU, Ki67, AR, AKT and TUNEL were evaluated by immunohistochemical analysis (original magnification: ×200). B, total proteins were extracted from the xenograft tumors and CLU, AR, Akt and PSA were analyzed by western blotting. The relative levels were normalized with vinculin and estimated in densitometric units±SEM.
# Male athymic nude mice (Harlan Sprague-Dawley, Inc.) were injected s.c. with 2×10^6 LNCaP cells (suspended in 0.1 mL Matrigel; BD Biosciences). The mice were castrated once tumors reach between 300 and 500 mm^3 or the PSA level increased above 50 ng/mL. Once tumors progressed to castrate resistance, mice were randomly assigned to vehicle, Hsp90i-2-PRO alone, Hsp90i-2-PRO+ScrB ASO or Hsp90i-2-PRO+custirsen. Hsp90i-2-PRO (Prodrug, 25 mg/kg; formulation in 0.5% CMC+0.5% Tween-80) is orally administered three times per week and custirsen or ScrB ASO (15 mg/kg) was injected intra-peritoneally once daily for the first week and then three times per week. Each experimental group consisted of 10 mice. Tumor volume was measured twice weekly (length×width×depth×0.5432). Serum PSA was determined weekly by enzymatic immunoassay (Abbott IMX, Montreal, Quebec, Canada). PSA doubling time (PSAdt) and velocity were calculated by the log-slope method (PSAt=PSAinitial×emt). Data points were expressed as average tumor volume±SEM or average PSA concentration±SEM.
# When tumor volume reached 10% of body weight, mice were sacrificed and tumors harvested for evaluation of protein expression by western blotting analyses and immunohistochemistry. All animal procedures were performed according to the guidelines of the Canadian Council on Animal Care and appropriate institutional certification.
# Immunohistochemical stains were performed on formalin-fixed and paraffin-embedded 4 μm sections of tumor samples using adequate primary antibody, and the Ventana autostainer Discover XT (Ventana Medical System) with enzyme labeled biotin streptavidin system and solvent resistant 3,3′-diaminobenyidine Map kit. All comparisons of staining intensities were made at 200× magnifications.
# [3] = Toxicity of Hsp90 inhibitor monotherapy; assay type: in vivo; conditions: 50 mg/kg/day
# [4] = tested on: castrate resistant LNCaP tumors; conditions: 50 mg/kg monotherapy, previous study (Lamoureux et al., 2011); cited from earlier work
# Hsp70 = Hsp70 expression in CRPC LNCaP xenografts (immunohistochemistry); assay type: in vivo, mice; conditions: 50 mg/kg Hsp90i-2-PRO for 6 weeks
# Description: as §1, §2
# [5] = 60 mg/kg/day (Glaze et al., 2005); cited from earlier work
# HSF-1 = assay: HSE-luciferase assay of HSF-1 activity; assay type: cell-based, human
# Description: FIG. 3. CLU induction following Hsp90 inhibitor treatment is cytoprotective via an increase of HSF-1 activity. A, LNCaP cells were treated with indicated concentrations of Hsp90i-1 or Hsp90i-2 for 48 h. B, LNCaP cells were transiently transfected with indicated concentrations of CLU-plasmid for 48 h. Total amount of plasmid DNA transfected was normalized to 2 μg per well by the addition of an empty vector. C (Top), LNCaP cells were transfected with 20 nM CLU siRNA or control siScr, followed of Hsp90i-1 or Hsp90i-2 treatment (1 μM) for 48 h. C (bottom), LNCaP cells were treated twice with 300 nM custirsen or control ScrB ASO. D, LNCaP and PC-3 cells were treated twice with 300 nM custirsen or control ScrB ASO, followed by 1 μM of Hsp90i-1 or Hsp90i-2 for 48 h. Cells were harvested, and HSE-luciferase activity or western blotting analyses were performed. Means of at least three independent experiments done in triplicate. ***, p<0.001; *, p<0.05; ns, not significant.
# LNCaP and C4-2 cells (2.5×10^5) were plated on six-plates and transfected using lipofectin (6 μL per well; Invitrogen Life Technologies, Inc.). The total amount HSE plasmids DNA used were normalized to 1 μg per well by the addition of a control plasmid. One μM HSP90i-2 or Hsp90i-1 was added 4 h after the transfection and for 48 h. HSE-luciferase activity was measured using Dual-Luciferase Reporter Assay System (Promega) with the aid of a microplate luminometer (EG&G Berthold). All experiments were carried out in triplicate wells and repeated 3 times using different preparations of plasmids.
# CLU [6] = conditions: Phase II studies (Chi et al., 2005); cited from earlier work
# [7] = LNCaP cells, Hsp90 inhibitor at indicated concentrations 48 h, dose-dependent
compound,measurement,setting,value
"control ScrB ASO: scrambled control oligonucleotide with 2′-O-(2-methoxy)ethyl modification, 5′-CAGCGCTGACAACAGTTTCAT-3′ (SEQ ID NO: 44) (2'-O-methoxyethyl modified, pattern not given here)",apoptotic rates (subG1 fraction),LNCaP cells,4.2%
CC1(C)CC(=O)c2c(C(F)(F)F)nn(-c3ccc(C(N)=O)c(NC4CCC(OC(=O)CN)CC4)c3)c2C1 (centres unmarked) [Hsp90i-2-PRO],CLU expression increase compared with vehicle treated tumor,CLU [1],4 fold
same,tumor volume,[2]; 7 weeks post treatment,2483.6 mm^3
same,tumor volume,[2]; at 10 days,646.4 mm^3
same,overall survival,[2]; by day 57,all mice died or were euthanized
same,mean PSA level,"[2]; serum, after 42 days",527 ng/mL
same,tumor volume / tumor progression,[2]; sub-therapeutic dose of 25 mg/kg/day HSP90i-2-PRO,"marginal, non-significant decreases"
same,effect on serum PSA levels,"[2]; sub-therapeutic dose of 25 mg/kg/day, monotherapy",no effect
same,toxicity as monotherapy,[3],body weight loss
same,LNCaP CRPC tumor progression,[4],inhibited
same,Hsp70 increase compared with vehicle treated tumor,Hsp70,2.3 fold
"C=CCNC1=C2C[C@@H](C)C[C@H](OC)[C@H](O)[C@@H](C)/C=C(\C)[C@H](OC(N)=O)[C@@H](OC)/C=C\C=C(/C)C(=O)NC(=CC1=O)C2=O [Hsp90i-1, 17-allylamino-17-demethoxygeldanamycin]",toxicity as monotherapy,[5],hepatotoxicity
same,HSF-1 activity,HSF-1; [7],significantly induced
"CC1(C)CC(=O)c2c(C(F)(F)F)nn(-c3ccc(C(N)=O)c(NC4CCC(O)CC4)c3)c2C1 (centres unmarked) [Hsp90i-2, 4-(6,6-Dimethyl-4-oxo-3-trifluoromethyl-4,5,6,7-tetrahydro-indazol-1-yl)-2-(4-hydroxy-cyclohexylamino)-benzamide]",HSF-1 activity,HSF-1; [7],significantly induced
"custirsen: antisense oligonucleotide reducing clusterin expression, CAGCAGCAGAGTCTTCATCAT (SEQ ID NO: 3), phosphorothioate backbone, 2′-O-methoxyethyl wings (antisense e[5mC]*eA*eG*e[5mC]*dA*dG*dC*dA*dG*dA*dG*dT*dC*dT*dT*dC*dA*eT*e[5mC]*eA*eT; listed as Homo sapiens)",apoptotic rates (subG1 fraction),LNCaP cells,17.4%
same,inhibition of CLU in human prostate cancer tissues,CLU [6],> 90%
same,HSF-1 activity,HSF-1; LNCaP cells treated twice with 300 nM custirsen vs control ScrB ASO,significantly decreased
